Data: patent EP0338092A1, “ANTI-HIV AGENT” (Chugai Seiyaku Kabushiki Kaisha, priority 1987, dated 1989)

Tested on: HIV
Assay: Detection of viral antigen (indirect fluorescent antibody technique) in HIV-infected Molt-4 clone No. 8 cells
Assay type: cell-based
Procedure: The sodium salts of oligosaccharide poly-sulfate esters prepared in Preparation Examples 1 - 3 and 5 - 7 were used as test samples. Molt-4 clone No. 8 cells were infected with a virus obtained from Molt-4/HIV producing cell.
The experiment was conducted in accordance with the method of Itoh et al. described in Antiviral Research, 7 (1987), 361 - 367.
The proportions of HIV antigen positive cells were determined by an indirect fluorescent antibody technique using an anti-HIV antibody positive serum as antibody against the infected cells. The results are shown in Tables 2 and 3, in which each of the figure listed denotes the percentage of infected cells taken by HIV antigen positive cells.

[1] = Table 3, amount of sample added 7.8 µg/ml
[2] = Table 3, amount of sample added 32 µg/ml
[3] = Table 3, amount of sample added 125 µg/ml
[4] = Table 3, amount of sample added 500 µg/ml
[5] = Table 3, amount of sample added 1000 µg/ml

| Substance | percentage of infected cells taken by HIV antigen positive cells [1] [%] | percentage of infected cells taken by HIV antigen positive cells [2] [%] | percentage of infected cells taken by HIV antigen positive cells [3] [%] | percentage of infected cells taken by HIV antigen positive cells [4] [%] | percentage of infected cells taken by HIV antigen positive cells [5] [%] |
| --- | --- | --- | --- | --- | --- |
| sodium salt of maltoheptaose sulfate ester [compound 7] | 18.2 | 4.8 | 4.4 | 4.1 | 3.2 |
| sodium salt of maltohexaose sulfate ester [compound 5] | 20.3 | 5.3 | 5.8 | 3.6 | 4.4 |
| sodium salt of maltopentaose sulfate ester [compound 6] | 24.1 | 6.4 | 6.0 | 4.4 | 4.6 |
